Reference: patent US12338256B2, “Aza-tetracyclic oxazepine compounds and uses thereof” (Genentech, Inc., priority 2022, dated 2025)

What was measured:
KRAS G12D = KRAS G12D (Homo sapiens, UniProt P01116, G12D); experiment: KRAS G12D LoEnz Biochemical Assay, BODIPY-GDP Exchange TR-FRET (Example 500); settings: BODIPY-GDP exchange, read-out: KRas (G12D) GDP HTRF IC50
Protocol: Example 500: KRAS G12D LoEnz Biochemical Assay, BODIPY-GDP Exchange TR-FRET. Biochemical compound potencies are assessed by evaluating inhibition of SOS1-mediated nucleotide exchange in KRAS G12D. In this assay, the SOS1-promoted exchange of fluorescently-labeled GDP (BOPIDY-GDP) is monitored by time-resolved fluorescence resonance energy transfer (TR-FRET). Compounds solubilized in DMSO are dispensed as concentration series into 384-well white assay plates. A preformed complex of biotin-tagged recombinant human KRAS (0.06 nM mutant G12D) and 0.06 nM terbium-labeled streptavidin (CisBIO) prepared in 10 uL/well assay buffer (20 mM HEPES, pH 7.5, 50 mM NaCl, 10 mM MgCl2, 0.01% Tween-20 and 1 mM dithiothreitol) is added and allowed to incubate for 10-minutes at room temperature. The reaction is initiated with the addition of 5 uL 300 nM recombinant human SOS1 and 300 nM BODIPY-GDP in assay buffer. After a 120-minute incubation, the fluorescence is measured with excitation at 337 nm and emission at 490 and 520 nm. The TR-FRET ratio is determined as the fluorescence at 520 nm divided by the fluorescence at 490 nm multiplied by 10,000. The results are normalized to percent inhibition based on control samples: DMSO (0% inhibition) and control compound at a concentration that inhibits completely (100% inhibition). The normalized TR-FRET results are plotted against compound concentration, and the data are fit to a 4-parameter Hill equation to determine the IC50 values.

KRAS WT = KRAS WT (Homo sapiens, UniProt P01116); experiment: KRAS WT Biochemical Assay, BODIPY-GDP Exchange TR-FRET (Example 502; 0.06 nM KRAS WT, 15 nM GDP, 300 nM SOS1, 120-minute incubation); settings: SOS1-mediated BODIPY-GDP exchange, read-out: KRas HTRF IC50
Protocol: Example 502: KRAS WT Biochemical Assay, BODIPY-GDP Exchange TR-FRET. Biochemical compound potencies are assessed by evaluating inhibition of SOS1-mediated nucleotide exchange in KRAS WT. In this assay, the SOS1-promoted exchange of fluorescently-labeled GDP (BOPIDY-GDP) is monitored by time-resolved fluorescence resonance energy transfer (TR-FRET). Compounds solubilized in DMSO are dispensed as concentration series into 384-well white assay plates. A preformed complex of 0.06 nM biotin-tagged recombinant human KRAS WT, 15 nM GDP and 0.06 nM terbium-labeled streptavidin (CisBIO) prepared in 10 uL/well assay buffer (20 mM HEPES, pH 7.5, 50 mM NaCl, 10 mM MgCl2, 0.01% Tween-20 and 1 mM dithiothreitol) is added and allowed to incubate for 10-minutes at room temperature. The reaction is initiated with the addition of 5 uL 300 nM recombinant human SOS1 and 300 nM BODIPY-GDP in assay buffer. After a 120-minute incubation, the fluorescence is measured with excitation at 337 nm and emission at 490 and 520 nm. The TR-FRET ratio is determined as the fluorescence at 520 nm divided by the fluorescence at 490 nm multiplied by 10,000. The results are normalized to percent inhibition based on control samples: DMSO (0% inhibition) and control compound at a concentration that inhibits completely (100% inhibition). […]

[1] = tested on: H1975 (KRAS wild type human lung adenocarcinoma cell line); experiment: KRAS 3D-Cell Proliferation Assay, H1975 (Example 503); type: cell-based; settings: Homo sapiens, NCI-H1975, 168 h, H1975 3D culture, 7 days, CellTiter-Glo 3D; read-out: Prolif H1975 3D ATP IC50
Procedure, shortened: (§1)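 IC50s come from a 4-parameter Hill fit of luminescence (CellTiter-Glo 3D) normalized between DMSO (0%) and 1 μM staurosporine (100%). Cells in low-attachment 3D culture, RPMI-1640 with 10% FBS, received serial compound dilutions (0.3% DMSO) after overnight and were incubated 7 days at 37 °C.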

[2] = tested on: HPAC (homozygous mutant KRAS G12D human pancreatic cell line); experiment: KRAS 3D-Cell Proliferation Assay, HPAC (Example 503); type: cell-based; settings: Homo sapiens, HPAC, 168 h, HPAC 3D culture, 7 days, CellTiter-Glo 3D; read-out: Prolif HPAC 3D ATP IC50
Procedure, shortened: as §1

[3] = tested on: AsPC-1 (homozygous mutant KRAS G12D human pancreatic cell line); experiment: KRAS 3D-Cell Proliferation Assay, AsPC-1 (Example 503); type: cell-based; settings: Homo sapiens, ASPC1, 168 h, AsPC-1 3D culture, 7 days, CellTiter-Glo 3D; read-out: Prolif AsPC-1 3D ATP IC50
Procedure, shortened: as §1

Chain of KRAS G12D (P01116 1-188 isoform P01116-2 G12D): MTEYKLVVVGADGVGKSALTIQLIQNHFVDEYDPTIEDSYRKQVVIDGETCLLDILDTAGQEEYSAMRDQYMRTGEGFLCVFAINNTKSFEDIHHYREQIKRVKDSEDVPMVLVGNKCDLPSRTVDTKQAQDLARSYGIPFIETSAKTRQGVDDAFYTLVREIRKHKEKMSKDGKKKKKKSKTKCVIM
Chain of KRAS WT (P01116 1-188 isoform P01116-2): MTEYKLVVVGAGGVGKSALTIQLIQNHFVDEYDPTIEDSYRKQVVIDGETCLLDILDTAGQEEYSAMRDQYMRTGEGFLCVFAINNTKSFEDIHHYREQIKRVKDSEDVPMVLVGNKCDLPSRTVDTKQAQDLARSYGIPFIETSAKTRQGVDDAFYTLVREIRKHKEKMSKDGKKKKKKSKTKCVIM

`C[C@@H]1Oc2nc(-c3cc(N)cc(F)c3C(F)(F)F)c(F)c3nc(OC[C@H]4CC[C@@H]5COC(C)(C)CN45)nc(c23)N2C[C@H]3CC[C@H](N3)[C@@H]12` (relative stereo) [Compound 125, 3-((5S,5aS,6S,9R)-12-((3,3-dimethylhexahydro-1H-pyrrolo[2,1-c][1,4]oxazin-6-yl)methoxy)-1-fluoro-5-methyl-5a,6,7,8,9,10-hexahydro-5H-4-oxa-3,10a,11,13,14-pentaaza-6,9-methanonaphtho[1,8-ab]heptalen-2-yl)-5-fluoro-4-(trifluoromethyl)aniline] gave an IC50 (KRAS G12D) of 0.23 nM, an IC50 (KRAS WT) of 14.7 nM and an IC50 [1] of 1220 nM. For the same compound, the IC50 [2] was 2.14 nM and the IC50 [3] was 10.2 nM.
